Data on 14 compounds can be found in PubChem BioAssay (NCI).

The structures appear in SMILES notation.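 Assay format: 96-well plates, 48-hour exposure. GI50: concentration for 50% inhibition of growth. TGI denotes the concentration required for complete inhibition of growth.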

Holding throughout (assay): inhibition of tumour cell growth, NCI panel, 48 h
Test [1] concerns ACHN renal.
The test system of test [2] is HCT-116 colon.
For test [3], the system named is NCI-H522 lung.
The subject of test [4] is SF-539 CNS.
The subject of test [5] is SNB-19 CNS.
Test [6] concerns SR leukemia.
In test [7] the test system is UACC-257 melanoma.
Test [8] relates to UACC-62 melanoma.
The test system of test [9] is OVCAR-5 ovarian.
In test [10] the test system is MDA-MB-435.

For `CCCCCCCCCCCC(=O)OCC1OC(n2cc(F)c(=O)[nH]c2=O)C(N)C(OC(=O)CCCCCCCCCCC)C1O` (configuration not stated), the TGI in test [1], in test [2], in test [3], in [4], in [5] and in test [6] was above 100 µM throughout. Moreover, the TGI in test [7] and in [8] was above 100 µM throughout.
As for `N=C(N)SCCc1cn2ccccc2n1`, the TGI in test [1], in [2], in test [3], in [9], in [4] and in test [5] was above 100 µM in each case. For the same compound, the TGI in [6] and in [7] was above 100 µM each time.
`CC(=O)OC12c3ccccc3C1CCCCCC21OCCCO1` (configuration not stated): the TGI in test [1], in test [2], in test [3], in test [9], in test [4] and in test [5] was above 100 µM throughout. Besides, the TGI in test [6] and in [8] was above 100 µM throughout.
`O=C(OCCOCBr)c1ccccc1`: the TGI in test [1], in test [2], in test [3], in [9], in test [4] and in test [5] was above 100 µM throughout. The TGI in test [6], in [7] and in test [8] was above 100 µM throughout.
Regarding `O=C(CCC(=O)Nc1ccc(Cl)cc1)CC(=O)c1ccc(F)cc1`, the TGI in test [1], in test [2], in [3], in test [9], in test [4] and in [5] was above 100 µM each time. Further, the TGI in test [6], in [7] and in test [8] was above 100 µM each time.
`C=C1CC(CCCl)(c2ccccc2)OC1=O` (configuration not stated): the TGI in test [1] is above 56.3 µM; in test [2], above 53.9 µM; in test [3], 33.2 µM; in test [9] it was above 100 µM; in [4], above 62 µM; in test [5], above 100 µM. For the same compound, the TGI in test [6] was 52.6 µM; in test [7] it was above 75.1 µM; in test [8], above 100 µM.
For `O=c1c2ccc3cccc4c(=O)cc(c5ccccc15)-c2c34`, the TGI in test [1], in test [2], in [3], in test [9], in [5] and in test [6] was above 100 µM in each case. Moreover, the TGI in [7] and in [8] was above 100 µM in each case.
As for `COC(=O)c1ccccc1NC(=O)/C(=N\NC(C)(C)C)C(C#N)c1nc(-c2ccc([N+](=O)[O-])cc2)cs1` (configuration not stated), the TGI in test [1], in test [2], in test [10], in test [9], in [4] and in test [5] was above 100 µM each time. Further, the TGI in test [6], in test [7] and in test [8] was above 100 µM throughout.
In the case of `O=C(O)/C(=C/c1ccccc1[N+](=O)[O-])c1ccccc1`, the TGI in test [1], in test [2], in test [3], in [9], in [4] and in test [5] was above 100 µM throughout. Moreover, the TGI in test [6], in test [7] and in test [8] was above 100 µM throughout.
Turning to `N=C(c1ccccc1)N(O)C1CCCCC1`, the TGI in test [2], in [3], in [9], in [4], in [5] and in test [6] was above 100 µM each time. The compound also returned a TGI in [7] above 100 µM.
As for `CC(=O)OC1CCn2nnc(COC(=O)NC(C)C)c21` (configuration not stated), the TGI in [1], in test [2], in test [3], in test [9], in test [4] and in [5] was above 100 µM throughout. The TGI in test [6], in test [7] and in test [8] was above 100 µM in each case.
As to `CCCNCc1nc2ccc(Br)cc2c(=O)n1CCC`, the TGI is 29.6 µM in test [1]; 21.5 µM in [2]; 26.8 µM in test [3]; 29.5 µM in test [4]; 30.5 µM in [5]; above 100 µM in test [6]. In addition, the TGI is 26 µM in test [7] and 19.8 µM in test [8].
Take `COc1ccc(-c2n[nH]nc2-c2csc3ccccc23)cc1OC`: the GI50 in [1] was 3.94 µM; in test [2], 2.84 µM; in test [10], 0.337 µM; in [3], 0.601 µM; in test [9], 7.91 µM; in test [4], 1.84 µM. For the same compound, the GI50 was 4.67 µM in test [5], 10.9 µM in test [7] and 2.77 µM in [8]. For the same compound, the TGI in test [1] is 76 µM; in test [2], 15.3 µM; in test [10], 3.52 µM; in [3], 2.81 µM; in test [9], above 100 µM; in test [4], 5.79 µM. Also, the TGI in test [5] came out at 45.1 µM; in test [7] it was 55.6 µM; in [8], 22.2 µM.
For the compound `COc1cnc2c(c1)C(=O)c1c-2n(CCCn2ccnc2)c(=O)c2cc(Cl)ccc12`, the GI50 was 0.0301 µM in test [1]; 0.0147 µM in test [2]; 0.145 µM in test [10]; 0.0276 µM in test [3]; 0.309 µM in test [9]; 0.0388 µM in test [4]. For the same compound, the values for the GI50 in [5], in [7] and in test [8] were 0.0321 µM, 0.0904 µM and 0.0283 µM, respectively. For the same compound, the TGI in test [1] amounted to 61.4 µM; in test [2], 0.216 µM; in test [10], 1.29 µM; in test [3], 10.1 µM; in test [9] it was 35 µM; in [4], 0.321 µM. Moreover, the values for the TGI in test [5], in test [7] and in test [8] were above 100 µM, 1.91 µM and 0.204 µM, respectively.
